What all share (type): cell-based
In experiment [1] the target is T1, IR (NIH-3T3 cells over expressing human IGF-1R or IR) (Homo sapiens, UniProt P06213).
T1 construct: expressed in transfected cells; host or cells: NIH-3T3 (mouse fibroblasts)
Briefly: IR cellular autophosphorylation (DELFIA). Particulars: NIH-3T3 cells over expressing IR, insulin stimulated. The protocol: D. IGF-1R and IR Cellular Autophosphorylation (DELFIA)
NIH-3T3 cells over expressing human IGF-1R or IR were plated in 96-well plates (10,000 cells/well) in culture media containing 10% fetal bovine serum and incubated at 37° C. in a 5% CO2 incubator. Twenty four hours post-plating, cells were treated with different concentrations of test compounds ranging from 30 uM to 1.5 nM. Two hours after compound addition, cells were stimulated with either human IGF-1 (30 ng/mL) or insulin (3 ug/mL) for 15 minutes. Cell lysates are analyzed for phosphorylated receptors using dissociation enhanced lanthanide fluor-immuno assay (DELFIA) with anti-IGF-1R (MAB391, R&D Systems, Minneapolis, Minn.) or anti-IR[…](sc-711, Santa Cruz Biotechnology, Santa Cruz, Calif.) capture antibody and europium-labeled anti-pTyr antibody (Eu-N1 PT66, Perkin Elmer, Waltham, Mass.) for detection. The fluorescence signal for cells treated with compounds was expressed as percent relative to 100% stimulation (IGF-1 or insulin stimulated signal). […]

The target in experiment [2] is T2, human IGF-1R (NIH-3T3 cells over expressing human IGF-1R) (Homo sapiens, UniProt P08069).
T2 construct: expressed in transfected cells; host or cells: NIH-3T3 (mouse fibroblasts)
T2 sequence (P08069 31-1367): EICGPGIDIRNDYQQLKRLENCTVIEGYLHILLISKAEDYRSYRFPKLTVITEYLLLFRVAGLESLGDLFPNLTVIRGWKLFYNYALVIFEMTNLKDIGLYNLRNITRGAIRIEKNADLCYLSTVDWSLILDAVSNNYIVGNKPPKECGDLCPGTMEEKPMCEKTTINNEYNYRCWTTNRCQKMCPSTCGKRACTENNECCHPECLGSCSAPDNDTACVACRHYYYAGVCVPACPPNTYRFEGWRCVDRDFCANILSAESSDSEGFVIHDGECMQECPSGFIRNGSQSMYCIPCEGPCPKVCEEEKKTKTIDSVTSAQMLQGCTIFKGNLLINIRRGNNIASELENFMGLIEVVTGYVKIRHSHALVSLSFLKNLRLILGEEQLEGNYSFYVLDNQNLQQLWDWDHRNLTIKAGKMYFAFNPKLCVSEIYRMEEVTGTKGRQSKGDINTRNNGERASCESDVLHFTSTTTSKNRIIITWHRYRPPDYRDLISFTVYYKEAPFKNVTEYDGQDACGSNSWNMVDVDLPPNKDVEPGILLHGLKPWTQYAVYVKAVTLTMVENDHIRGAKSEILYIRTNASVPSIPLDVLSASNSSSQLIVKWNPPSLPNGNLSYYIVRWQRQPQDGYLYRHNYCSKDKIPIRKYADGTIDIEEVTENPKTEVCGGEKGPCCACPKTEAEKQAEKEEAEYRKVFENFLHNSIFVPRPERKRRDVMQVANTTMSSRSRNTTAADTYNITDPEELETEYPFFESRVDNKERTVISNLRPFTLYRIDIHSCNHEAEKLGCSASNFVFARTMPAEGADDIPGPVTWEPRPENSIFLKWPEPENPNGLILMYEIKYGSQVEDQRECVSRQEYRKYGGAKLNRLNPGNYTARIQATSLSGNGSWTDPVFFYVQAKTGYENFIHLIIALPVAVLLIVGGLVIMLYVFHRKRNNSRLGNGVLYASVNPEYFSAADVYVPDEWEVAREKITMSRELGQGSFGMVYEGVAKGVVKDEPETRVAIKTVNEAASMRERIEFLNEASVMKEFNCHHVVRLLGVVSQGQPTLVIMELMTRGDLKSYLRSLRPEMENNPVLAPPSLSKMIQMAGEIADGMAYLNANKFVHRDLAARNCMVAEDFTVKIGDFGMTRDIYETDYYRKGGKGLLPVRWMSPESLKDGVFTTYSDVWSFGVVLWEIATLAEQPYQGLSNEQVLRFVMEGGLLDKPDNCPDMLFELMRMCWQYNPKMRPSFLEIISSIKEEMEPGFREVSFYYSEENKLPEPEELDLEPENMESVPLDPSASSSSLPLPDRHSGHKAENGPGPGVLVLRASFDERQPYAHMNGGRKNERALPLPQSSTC
Briefly: IGF-1R cellular autophosphorylation (DELFIA). Particulars: IGF-1 stimulated. A digest of the protocol: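 Read-out: DELFIA on lysates, receptor-specific capture antibody plus europium-labelled anti-phosphotyrosine, reported as % of IGF-1- or insulin-stimulated signal. Transfected NIH-3T3 cells got compound (30 uM–1.5 nM, 2 h) before a 15 min ligand pulse: IGF-1 30 ng/mL for IGF-1R, insulin 3 ug/mL for IR.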

The next experiment concerns COLO205 (colon). Briefly: Inhibition of cell proliferation, CellTiter-Glo, COLO205. Particulars: Homo sapiens, COLO 205, 72 h. The method in brief: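 Exponentially growing COLO205 cells in medium with 10% FBS were plated below 2000 cells/well at 37 °C, 5% CO2. Untreated wells served as controls.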

Some results are limits rather than exact numbers.

T1 sequence (P06213 28-1382): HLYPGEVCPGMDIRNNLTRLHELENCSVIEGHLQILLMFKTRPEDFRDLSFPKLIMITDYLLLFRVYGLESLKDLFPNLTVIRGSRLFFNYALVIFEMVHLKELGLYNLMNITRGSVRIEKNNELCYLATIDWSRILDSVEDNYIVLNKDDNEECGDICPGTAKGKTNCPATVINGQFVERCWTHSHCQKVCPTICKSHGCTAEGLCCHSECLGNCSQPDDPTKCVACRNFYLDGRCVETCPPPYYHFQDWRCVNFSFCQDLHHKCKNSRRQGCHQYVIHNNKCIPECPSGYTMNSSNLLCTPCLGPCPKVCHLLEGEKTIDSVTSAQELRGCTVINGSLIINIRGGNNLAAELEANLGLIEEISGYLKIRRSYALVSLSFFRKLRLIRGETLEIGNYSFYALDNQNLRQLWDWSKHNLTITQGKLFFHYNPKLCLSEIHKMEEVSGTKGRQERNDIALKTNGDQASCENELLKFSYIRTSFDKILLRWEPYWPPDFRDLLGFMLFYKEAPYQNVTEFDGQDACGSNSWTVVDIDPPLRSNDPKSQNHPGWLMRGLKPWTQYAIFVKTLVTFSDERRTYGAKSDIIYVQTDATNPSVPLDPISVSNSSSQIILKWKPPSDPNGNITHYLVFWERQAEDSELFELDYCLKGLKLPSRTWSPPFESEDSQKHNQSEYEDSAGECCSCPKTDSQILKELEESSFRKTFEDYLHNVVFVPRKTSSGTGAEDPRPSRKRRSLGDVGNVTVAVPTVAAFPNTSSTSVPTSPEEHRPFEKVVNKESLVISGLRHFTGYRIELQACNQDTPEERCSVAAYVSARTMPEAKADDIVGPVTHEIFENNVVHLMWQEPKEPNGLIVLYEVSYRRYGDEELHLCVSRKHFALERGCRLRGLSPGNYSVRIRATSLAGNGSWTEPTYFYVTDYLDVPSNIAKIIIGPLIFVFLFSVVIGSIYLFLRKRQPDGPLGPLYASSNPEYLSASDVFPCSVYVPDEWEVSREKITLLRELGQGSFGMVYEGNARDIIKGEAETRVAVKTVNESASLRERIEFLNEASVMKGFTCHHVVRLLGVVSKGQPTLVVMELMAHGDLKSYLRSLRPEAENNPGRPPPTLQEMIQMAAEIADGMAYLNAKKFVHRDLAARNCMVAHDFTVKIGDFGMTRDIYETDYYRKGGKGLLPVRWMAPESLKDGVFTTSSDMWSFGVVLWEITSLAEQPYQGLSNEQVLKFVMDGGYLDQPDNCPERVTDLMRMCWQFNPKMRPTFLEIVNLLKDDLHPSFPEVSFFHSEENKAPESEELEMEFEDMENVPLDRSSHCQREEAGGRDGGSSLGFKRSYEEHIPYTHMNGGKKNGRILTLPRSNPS

Consider `COc1cc(N2CCC(N3CCCCC3)CC2)ccc1Nc1nccc(-c2c(-c3cccc(C(=O)Nc4ccc(F)cc4Cl)c3)nc3ccccn23)n1` [Example 44, 3-[3-(2-{[4-(1,4′-bipiperidin-1′-yl)-2-(methyloxy)phenyl]amino}-4-pyrimidinyl)imidazo[1,2-a]pyridin-2-yl]-N-(2-chloro-4-fluorophenyl)benzamide], for which the values for the IC50 (in experiment [1]; in experiment [2]; in the experiment on COLO205 (colon)) were 100 to 500 nM, < 100 nM and 250 to 1000 nM, respectively.
In the same order, the values of `COc1cc(N2CCC(N3CCN(C)CC3)CC2)ccc1Nc1nccc(-c2c(-c3cccc(C(=O)Nc4c(F)cccc4F)c3)nc3ccccn23)n1` [Example 79, N-(2,6-difluorophenyl)-3-{3-[2-({2-(methyloxy)-4-[4-(4-methyl-1-piperazinyl)-1-piperidinyl]phenyl}amino)-4-pyrimidinyl]imidazo[1,2-a]pyridin-2-yl}benzamide] are < 100 nM, < 100 nM and < 250 nM.
For `CC(C)Oc1cc(N2CCC(N3CCCCC3)CC2)ccc1Nc1nccc(-c2c(-c3cccc(C(=O)Nc4c(F)cccc4F)c3)nc3ccccn23)n1` [Example 35, 3-{3-[2-({4-(1,4′-bipiperidin-1′-yl)-2-[(1-methylethyl)oxy]phenyl}amino)-4-pyrimidinyl]imidazo[1,2-a]pyridin-2-yl}-N-(2,6-difluorophenyl)benzamide], in that order: 100 to 500 nM, 100 to 500 nM and 250 to 1000 nM.
For `COc1cc([C@H]2CC[C@H](N3CCN(CCS(C)(=O)=O)CC3)CC2)ccc1Nc1nccc(-c2c(-c3cccc(C(=O)Nc4c(F)cccc4F)c3)nc3ccccn23)n1` [Example 94, N-(2,6-difluorophenyl)-3-[3-(2-{[2-(methyloxy)-4-(trans-4-{4-[2-(methylsulfonyl)-ethyl]-1-piperazinyl}cyclohexyl)phenyl]amino}-4-pyrimidinyl)imidazo[1,2-a]pyridin-2-yl]benzamide], in that order: 100 to 500 nM, < 100 nM and > 1000 nM.
With `COc1cc(CCCN2CCN(C)CC2)ccc1Nc1nccc(-c2c(-c3ccc(OC)c(C(=O)Nc4c(F)cccc4F)c3)nc3ccccn23)n1` [Example 142, N-(2,6-difluorophenyl)-2-(methyloxy)-5-{3-[2-({2-(methyloxy)-4-[3-(4-methyl-1-piperazinyl)propyl]phenyl}amino)-4-pyrimidinyl]imidazo[1,2-a]pyridin-2-yl}benzamide], the IC50 in experiment [1] is < 100 nM; in experiment [2] it was < 100 nM; in the experiment on COLO205 (colon), 250 to 1000 nM.
In the case of `COc1cc(N2CCC(N3CCCCCC3)CC2)ccc1Nc1nccc(-c2c(-c3cccc(C(=O)Nc4c(F)cccc4F)c3)nc3ccccn23)n1` [Example 50, N-(2,6-difluorophenyl)-3-[3-(2-{[4-[4-(hexahydro-1H-azepin-1-yl)-1-piperidinyl]-2-(methyloxy)phenyl]amino}-4-pyrimidinyl)imidazo[1,2-a]pyridin-2-yl]benzamide], the concentration for half-maximal inhibition (IC50) in experiment [1] is < 100 nM; in experiment [2] it was < 100 nM; in the experiment on COLO205 (colon), 250 to 1000 nM.
Consider `CCOc1cc(N2CCN(CCS(C)(=O)=O)CC2)ccc1Nc1nccc(-c2c(-c3cccc(C(=O)Nc4c(F)cccc4F)c3)nc3ccccn23)n1` [Example 145, N-(2,6-difluorophenyl)-3-(3-{2-[(2-(ethyloxy)-4-{4-[2-(methylsulfonyl)ethyl]-1-piperazinyl}phenyl)amino]-4-pyrimidinyl}imidazo[1,2-a]pyridin-2-yl)benzamide], for which the values for the 50% inhibitory concentration (IC50) (in experiment [1]; in experiment [2]; in the experiment on COLO205 (colon)) were < 100 nM, 100 to 500 nM and 250 to 1000 nM, respectively.
For the compound `COc1cc(CCN2CCN(C)CC2)ccc1Nc1nccc(-c2c(-c3ccc(OC(C)C)c(C(=O)Nc4c(F)cccc4F)c3)nc3ccccn23)n1` [Example 134, N-(2,6-difluorophenyl)-2-isopropoxy-5-{3-[2-({2-methoxy-4-[2-(4-methylpiperazin-1-yl)ethyl]phenyl}amino)pyrimidin-4-yl]imidazo[1,2-a]pyridin-2-yl}benzamide], the IC50 in experiment [1] is < 100 nM; in experiment [2], < 100 nM; in the experiment on COLO205 (colon), 250 to 1000 nM.
Regarding `COc1cc(N2CCC(N3CCC(O)CC3)CC2)ccc1Nc1nccc(-c2c(-c3cccc(C(=O)Nc4c(F)cccc4F)c3)nc3ccccn23)n1` [Example 80, N-(2,6-difluorophenyl)-3-[3-(2-{[4-(4-hydroxy-1,4′-bipiperidin-1′-yl)-2-(methyloxy)-phenyl]amino}-4-pyrimidinyl)imidazo[1,2-a]pyridin-2-yl]benzamide], the results for the IC50 (in experiment [1]; in experiment [2]; in the experiment with COLO205 (colon)) were < 100 nM, < 100 nM and < 250 nM, respectively.
Take `COc1ccn2c(-c3ccnc(Nc4cccc(OCCN(C)C)c4)n3)c(-c3cccc(C(=O)Nc4c(F)cccc4F)c3)nc2c1` [Example 17, N-(2,6-difluorophenyl)-3-[3-{2-[(3-{[2-(dimethylamino)ethyl]oxy}phenyl)amino]-4-pyrimidinyl}-7-(methyloxy)imidazo[1,2-a]pyridin-2-yl]benzamide]: the 50% inhibitory concentration (IC50) is > 500 nM in experiment [1], 100 to 500 nM in experiment [2] and 250 to 1000 nM with COLO205 (colon).
`COc1ccn2c(-c3ccnc(Nc4ccc(N5CCC(N6CCN(CCF)CC6)CC5)cc4OC)n3)c(-c3cccc(C(=O)Nc4c(F)cccc4F)c3)nc2c1` [Example 62, N-(2,6-difluorophenyl)-3-[3-(2-{[4-{4-[4-(2-fluoroethyl)-1-piperazinyl]-1-piperidinyl}-2-(methyloxy)phenyl]amino}-4-pyrimidinyl)-7-(methyloxy)imidazo[1,2-a]pyridin-2-yl]benzamide]: the IC50 in experiment [1] is < 100 nM; in experiment [2] it was < 100 nM; in the experiment on COLO205 (colon), 250 to 1000 nM.
In the case of `COc1cc(N2CCN(C3CCN(CCF)CC3)CC2)ccc1Nc1nccc(-c2c(-c3cccc(C(=O)Nc4c(F)cccc4F)c3)nc3ccccn23)n1` [Example 90, N-(2,6-difluorophenyl)-3-[3-(2-{[4-{4-[1-(2-fluoroethyl)-4-piperidinyl]-1-piperazinyl}-2-(methyloxy)phenyl]amino}-4-pyrimidinyl)imidazo[1,2-a]pyridin-2-yl]benzamide], the IC50 in experiment [1] is < 100 nM; in experiment [2] it was < 100 nM; in the experiment on COLO205 (colon), 250 to 1000 nM.
Turning to `CCc1cc(N2CCC(N3CCCCC3)CC2)ccc1Nc1nccc(-c2c(-c3cccc(C(=O)Nc4c(F)cccc4F)c3)nc3ccccn23)n1` [Example 40, 3-[3-(2-{[4-(1,4′-bipiperidin-1′-yl)-2-ethylphenyl]amino}-4-pyrimidinyl)imidazo[1,2-a]pyridin-2-yl]-N-(2,6-difluorophenyl)benzamide], the results for the IC50 (in experiment [1]; in experiment [2]; in the experiment with COLO205 (colon)) were 100 to 500 nM, < 100 nM and 250 to 1000 nM, respectively.
For `COc1cc(N2CCC(CN3CCN(C)CC3)CC2)ccc1Nc1nccc(-c2c(-c3cccc(C(=O)Nc4c(F)cccc4F)c3)nc3ccccn23)n1` [Example 37, N-(2,6-difluorophenyl)-3-(3-{2-[(2-(methyloxy)-4-{4-[(4-methyl-1-piperazinyl)methyl]-1-piperidinyl}phenyl)amino]-4-pyrimidinyl}imidazo[1,2-a]pyridin-2-yl)benzamide], the half-inhibitory concentration (IC50) is < 100 nM in experiment [1], < 100 nM in experiment [2] and 250 to 1000 nM in the experiment with COLO205 (colon).

For the origin of these results see patent US20100216779A1 (GLAXOSMITHKLINE LLC, priority 2007, published 2010).
